Data from publication PMC5501184 (Journal of medicinal chemistry, 2017).
Like-named read-outs stand apart in the source and are kept apart here.

Assays:
hDAT [1] = biological target: T1, hDAT (Homo sapiens, UniProt Q01959); assay: PDSP screen: [^3H]24 binding at hDAT; details: for inhibition at 10 µM: read-out: hDAT Binding Inhibition, % of control; for remaining activity at 10 µM: read-out: hDAT Binding Enhancement, % of control
hDAT [2] = biological target: T1, hDAT; details: 10 μM; [^3H]24 binding, PDSP; ref Janowsky et al.[3]; cited from earlier work
mA3AR = biological target: T2, mA3AR (Mus musculus, UniProt Q61618); assay: A3AR radioligand; assay type: binding; details: for A3AR Binding % at 10 μM (m): mouse, % inhibition at 10 μM, radioligand [^125I]25
T2 sequence (Q61618 1-319): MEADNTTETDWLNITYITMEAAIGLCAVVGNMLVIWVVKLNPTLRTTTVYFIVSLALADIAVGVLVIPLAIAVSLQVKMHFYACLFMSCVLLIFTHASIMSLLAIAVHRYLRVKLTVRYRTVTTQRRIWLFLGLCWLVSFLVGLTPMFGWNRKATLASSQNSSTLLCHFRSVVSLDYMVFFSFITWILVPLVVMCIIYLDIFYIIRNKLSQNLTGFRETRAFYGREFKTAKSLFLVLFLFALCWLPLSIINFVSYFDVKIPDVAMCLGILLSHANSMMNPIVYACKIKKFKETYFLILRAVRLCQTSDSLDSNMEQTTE

hDAT [3] = biological target: T1, hDAT; assay: [^125I]23 binding to HEK-hDAT membranes; details: maximal enhancement
hNET = hNET (Homo sapiens, UniProt P23975); assay: [^125I]23 binding to HEK-hNET membranes; details: maximal enhancement
Sequence of hNET (P23975 whole entry): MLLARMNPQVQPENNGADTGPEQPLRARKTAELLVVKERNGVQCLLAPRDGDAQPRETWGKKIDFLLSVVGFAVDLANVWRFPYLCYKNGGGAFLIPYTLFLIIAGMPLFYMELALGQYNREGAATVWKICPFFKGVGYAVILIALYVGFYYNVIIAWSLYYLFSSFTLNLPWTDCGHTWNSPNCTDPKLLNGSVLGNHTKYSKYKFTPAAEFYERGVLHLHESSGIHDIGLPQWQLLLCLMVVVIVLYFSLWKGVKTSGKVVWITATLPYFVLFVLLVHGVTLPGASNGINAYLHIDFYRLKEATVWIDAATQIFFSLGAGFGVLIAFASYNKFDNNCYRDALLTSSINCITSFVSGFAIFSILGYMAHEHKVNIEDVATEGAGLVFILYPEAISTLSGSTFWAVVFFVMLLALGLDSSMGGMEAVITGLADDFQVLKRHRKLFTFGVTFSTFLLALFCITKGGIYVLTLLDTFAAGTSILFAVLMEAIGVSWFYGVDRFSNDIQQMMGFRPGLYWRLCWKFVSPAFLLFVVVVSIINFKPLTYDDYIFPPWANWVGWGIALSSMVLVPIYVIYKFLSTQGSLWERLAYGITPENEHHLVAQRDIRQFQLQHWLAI

[4] = tested on: mouse chronic constriction injury (CCI) model of neuropathic pain; assay: mouse chronic constriction injury; assay type: in vivo; details: 3 μmol/kg, p.o.; 7 d post-injury
hDAT [5] = biological target: T1, hDAT; assay: [^3H]26 binding to HEK-hDAT membranes

T1 sequence (Q01959 whole entry): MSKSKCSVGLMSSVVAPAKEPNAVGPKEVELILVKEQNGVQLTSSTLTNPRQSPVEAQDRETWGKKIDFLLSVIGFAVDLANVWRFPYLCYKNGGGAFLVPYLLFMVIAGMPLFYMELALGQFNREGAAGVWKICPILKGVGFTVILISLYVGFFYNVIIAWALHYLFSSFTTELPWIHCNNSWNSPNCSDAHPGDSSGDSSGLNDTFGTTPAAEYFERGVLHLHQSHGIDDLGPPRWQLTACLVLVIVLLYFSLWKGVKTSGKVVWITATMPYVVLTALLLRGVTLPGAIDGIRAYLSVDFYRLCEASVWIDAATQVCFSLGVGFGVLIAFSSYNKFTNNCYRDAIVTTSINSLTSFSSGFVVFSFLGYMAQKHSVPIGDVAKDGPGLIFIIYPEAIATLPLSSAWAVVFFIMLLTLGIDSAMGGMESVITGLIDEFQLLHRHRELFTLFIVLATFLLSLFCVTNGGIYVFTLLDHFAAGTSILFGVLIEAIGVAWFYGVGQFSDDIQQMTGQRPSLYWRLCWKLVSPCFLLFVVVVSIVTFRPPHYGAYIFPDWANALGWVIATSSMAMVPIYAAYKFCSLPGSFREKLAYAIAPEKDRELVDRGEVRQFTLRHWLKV

## CCNc1cc(C#Cc2ccc(Cl)s2)nc2c1ncn2[C@H]1[C@H](O)[C@H](O)[C@]2(C(=O)NC)C[C@H]12 [5b]
hDAT [1]
  inhibition at 10 µM: -20 to 20%

## CNC(=O)[C@@]12C[C@@H]1[C@@H](n1cnc3c(NC)nc(C#Cc4ccc(Br)s4)nc31)[C@H](O)[C@@H]2O [compound 2]
hDAT [2]
  hDAT Binding Inhibition, % of control: NE (no effect)

## CNC(=O)[C@@]12C[C@@H]1[C@@H](n1cnc3c(NC)nc(C#Cc4ccc(F)c(F)c4)nc31)[C@H](O)[C@@H]2O [compound 3]
hDAT [2]
  hDAT Binding Inhibition, % of control: NE (no effect)

## CNC(=O)[C@@]12C[C@@H]1[C@@H](n1cnc3c(NC)nc(C#Cc4ccc(Cl)s4)cc31)[C@H](O)[C@@H]2O [compound 6, (1S,2R,3S,4R,5S)-4-(6-((5-Chlorothiophen-2-yl)ethynyl)-4-(methylamino)-1H-imidazo[4,5-c]pyridin-1-yl)-2,3-dihydroxy-N-methylbicyclo[3.1.0]hexane-1-carboxamide]
hDAT [1]
  inhibition at 10 µM: < -20%
mA3AR
  A3AR Binding % at 10 μM (m): < 50%

## CCCNc1nc(C#Cc2ccc(Cl)s2)nc2c1ncn2[C@H]1[C@H](O)[C@H](O)[C@]2(C(=O)NC)C[C@H]12 [compound 7]
mA3AR
  fold greater mA3AR affinity compared to ribose 5′-amide 28: 88 fold
hDAT [2]
  hDAT Binding Inhibition, % of control: NE (no effect)

## CNc1nc(C#Cc2ccc(Cl)s2)nc2c1ncn2[C@H]1[C@H](O)[C@H](O)[C@]2(C(=O)NCCN)C[C@H]12 [compound 8, (1S,2R,3S,4R,5S)-N-(2-Aminoethyl)-4-(2-((5-chlorothiophen-2-yl)ethynyl)-6-(methylamino)-9H-purin-9-yl)-2,3-dihydroxybicyclo[3.1.0]hexane-1-carboxamide]
hDAT [1]
  remaining activity at 10 µM: 133%
  inhibition at 10 µM: < -20%

## CNc1nc(C#Cc2ccc(Cl)s2)nc2c1ncn2[C@H]1[C@H](O)[C@H](O)[C@]2(C(=O)OC)C[C@H]12 [compound 9, Methyl (1S,2R,3S,4R,5S)-4-(2-((5-chlorothiophen-2-yl)ethynyl)-6-(methylamino)-9H-purin-9-yl)-2,3-dihydroxybicyclo[3.1.0]hexane-1-carboxylate]
hDAT [1]
  remaining activity at 10 µM: 391%
  inhibition at 10 µM: < -20%
mA3AR
  Ki: > 10 µM
  A3AR Binding % at 10 μM (m): < 50%
hDAT [3]
  hDAT [^125I]23 binding, % control binding: ~450%
hNET
  hNET [^125I]23 binding, % control binding: ~370%

## CCOC(=O)[C@@]12C[C@@H]1[C@@H](n1cnc3c(NC)nc(C#Cc4ccc(Cl)s4)nc31)[C@H](O)[C@@H]2O [compound 10, Ethyl (1S,2R,3S,4R,5S)-4-(2-((5-chlorothiophen-2-yl)ethynyl)-6-(methylamino)-9H-purin-9-yl)-2,3-dihydroxybicyclo[3.1.0]hexane-1-carboxylate]
hDAT [1]
  inhibition at 10 µM: < -20%
mA3AR
  A3AR Binding % at 10 μM (m): < 50%
hNET
  hNET [^125I]23 binding, % control binding: ~370%

## CNc1nc(C#Cc2ccc(Br)s2)nc2c1ncn2[C@H]1[C@H](O)[C@H](O)[C@]2(C(=O)OC)C[C@H]12 [compound 11, Methyl (1S,2R,3S,4R,5S)-4-(2-((5-bromothiophen-2-yl)ethynyl)-6-(methylamino)-9H-purin-9-yl)-2,3-dihydroxybicyclo[3.1.0]hexane-1-carboxylate]
hDAT [1]
  inhibition at 10 µM: < -20%

## CCOC(=O)[C@@]12C[C@@H]1[C@@H](n1cnc3c(NC)nc(C#Cc4ccc(Br)s4)nc31)[C@H](O)[C@@H]2O [compound 12, Ethyl (1S,2R,3S,4R,5S)-4-(2-((5-bromothiophen-2-yl)ethynyl)-6-(methylamino)-9H-purin-9-yl)-2,3-dihydroxybicyclo[3.1.0]hexane-1-carboxylate]
hDAT [1]
  inhibition at 10 µM: < -20%

## CCOC(=O)[C@@]12C[C@@H]1[C@@H](n1cnc3c(NC)nc(C#Cc4ccc(Cl)s4)cc31)[C@H](O)[C@@H]2O [compound 13, Ethyl (1S,2R,3S,4R,5S)-4-(6-((5-chlorothiophen-2-yl)ethynyl)-4-(methylamino)-1H-imidazo[4,5-c]pyridin-1-yl)-2,3-dihydroxybicyclo[3.1.0]hexane-1-carboxylate]
hDAT [1]
  inhibition at 10 µM: < -20%

## CCCOC(=O)[C@@]12C[C@@H]1[C@@H](n1cnc3c(NC)nc(C#Cc4ccc(Cl)s4)nc31)[C@H](O)[C@@H]2O [compound 14, n-Propyl (1S,2R,3S,4R,5S)-4-(2-((5-chlorothiophen-2-yl)ethynyl)-6-(methylamino)-9H-purin-9-yl)-2,3-dihydroxybicyclo[3.1.0]hexane-1-carboxylate]
hDAT [1]
  inhibition at 10 µM: < -20%

## CNc1nc(C#Cc2ccc(Cl)s2)nc2c1ncn2[C@H]1[C@H](O)[C@H](O)[C@]2(C(=O)OC(C)C)C[C@H]12 [compound 15, Isopropyl (1S,2R,3S,4R,5S)-4-(2-((5-chlorothiophen-2-yl)ethynyl)-6-(methylamino)-9H-purin-9-yl)-2,3-dihydroxybicyclo[3.1.0]hexane-1-carboxylate]
hDAT [1]; 10 μM, [^3H]24 binding, PDSP
  hDAT Binding Inhibition, % of control: slightly inhibited binding

## CCCCOC(=O)[C@@]12C[C@@H]1[C@@H](n1cnc3c(NC)nc(C#Cc4ccc(Cl)s4)nc31)[C@H](O)[C@@H]2O [compound 16, Butyl (1S,2R,3S,4R,5S)-4-(2-((5-chlorothiophen-2-yl)ethynyl)-6-(methylamino)-9H-purin-9-yl)-2,3-dihydroxybicyclo[3.1.0]hexane-1-carboxylate]
hDAT [1]
  inhibition at 10 µM: < -20%

## CNc1nc(C#Cc2ccc(Cl)s2)nc2c1ncn2[C@H]1[C@H](O)[C@H](O)[C@]2(C(=O)OCCC(C)C)C[C@H]12 [compound 17, Isopentyl (1S,2R,3S,4R,5S)-4-(2-((5-chlorothiophen-2-yl)ethynyl)-6-(methylamino)-9H-purin-9-yl)-2,3-dihydroxybicyclo[3.1.0]hexane-1-carboxylate]
hDAT [1]
  inhibition at 10 µM: < -20%

## CNc1nc(C#Cc2ccc(Cl)s2)nc2c1ncn2[C@H]1[C@H](O)[C@H](O)[C@]2(C(=O)OCCC3CCCCC3)C[C@H]12 [compound 18, 2-Cyclohexylethyl (1S,2R,3S,4R,5S)-4-(2-((5-chlorothiophen-2-yl)ethynyl)-6-(methylamino)-9H-purin-9-yl)-2,3-dihydroxybicyclo[3.1.0]hexane-1-carboxylate]
hDAT [1]
  inhibition at 10 µM: -20 to 20%

## CNc1nc(C#Cc2ccc(Cl)s2)nc2c1ncn2[C@H]1[C@H](O)[C@H](O)[C@]2(C(=O)OCc3ccccc3)C[C@H]12 [compound 19, Benzyl (1S,2R,3S,4R,5S)-4-(2-((5-chlorothiophen-2-yl)ethynyl)-6-(methylamino)-9H-purin-9-yl)-2,3-dihydroxybicyclo[3.1.0]hexane-1-carboxylate]
hDAT [1]
  inhibition at 10 µM: -20 to 20%

## CNc1nc(C#Cc2ccc(Cl)s2)nc2c1ncn2[C@H]1[C@H](O)[C@H](O)[C@]2(C(=O)OCCc3ccccc3)C[C@H]12 [compound 20, 2-Phenylethyl (1S,2R,3S,4R,5S)-4-(2-((5-chlorothiophen-2-yl)ethynyl)-6-(methylamino)-9H-purin-9-yl)-2,3-dihydroxybicyclo[3.1.0]hexane-1-carboxylate]
hDAT [1]
  inhibition at 10 µM: -20 to 20%

## CNc1nc(C#Cc2ccc(Cl)s2)nc2c1ncn2[C@H]1[C@H](O)[C@H](O)[C@]2(C(=O)OCCCc3ccccc3)C[C@H]12 [compound 21, 3-Phenylpropyl (1S,2R,3S,4R,5S)-4-(2-((5-chlorothiophen-2-yl)ethynyl)-6-(methylamino)-9H-purin-9-yl)-2,3-dihydroxybicyclo[3.1.0]hexane-1-carboxylate]
hDAT [1]
  inhibition at 10 µM: -20 to 20%

## CNc1nc(C#Cc2ccc(Cl)s2)nc2c1ncn2[C@H]1[C@H](O)[C@H](O)[C@]2(C(=O)O)C[C@H]12 [compound 22, (1S,2R,3S,4R,5S)-4-(2-((5-Chlorothiophen-2-yl)ethynyl)-6-(methylamino)-9H-purin-9-yl)-2,3-dihydroxybicyclo[3.1.0]hexane-1-carboxylic acid]
hDAT [1]
  inhibition at 10 µM: < -20%

## CNC(=O)[C@H]1O[C@@H](n2cnc3c(NC)nc(C#Cc4ccc(Cl)s4)nc32)[C@H](O)[C@@H]1O [compound 27, (2S,3S,4R,5R)-5-(2-((5-Chlorothiophen-2-yl)ethynyl)-6-(methylamino)-9H-purin-9-yl)-3,4-dihydroxy-N-methyltetrahydrofuran-2-carboxamide]
hDAT [1]
  inhibition at 10 µM: < -20%
[4]
  efficacy in increasing paw withdrawal threshold (PWT): fully efficacious

## CCCNc1nc(C#Cc2ccc(Cl)s2)nc2c1ncn2[C@@H]1O[C@H](C(=O)NC)[C@@H](O)[C@H]1O [compound 28, (2S,3S,4R,5R)-5-(2-((5-Chlorothiophen-2-yl)ethynyl)-6-(n-propylamino)-9H-purin-9-yl)-3,4-dihydroxy-N-methyltetrahydrofuran-2-carboxamide]
hDAT [1]
  inhibition at 10 µM: < -20%
[4]
  efficacy in increasing paw withdrawal threshold (PWT): fully efficacious

## CNc1nc(C#Cc2ccc(Cl)s2)nc2c1ncn2[C@@H]1O[C@H](C(=O)OC)[C@@H](O)[C@H]1O [compound 29, Methyl (2S,3S,4R,5R)-5-(2-((5-Chlorothiophen-2-yl)ethynyl)-6-(methylamino)-9H-purin-9-yl)-3,4-dihydroxytetrahydrofuran-2-carboxylate]
hDAT [1]
  inhibition at 10 µM: < -20%
hDAT [5]
  fold higher EC50 than 9 for enhancement of [^3H]26 binding at hDAT: 7 fold
